This is an account of results in US20250145665A1, “MACROCYCLIC PEPTIDES USEFUL AS MODULATORS OF TNF ALPHA” (Bristol-Myers Squibb Company, priority 2023, published 2025).

The IC50 is the concentration that inhibits the measured activity by half.

SMILES strings stand for the structures. Positions of bridges follow the written chain, without caps; N, C: chain ends. Non-standard residues stand in square brackets, D forms with d. Residues, ends and D or L forms follow the SMILES beside them. Bip(4'-COOH) = N[C@@H](Cc1ccc(-c2ccc(C(=O)O)cc2)cc1)C(=O)O; Bip(4'-NHAc) = CC(=O)Nc1ccc(-c2ccc(C[C@H](N)C(=O)O)cc2)cc1; Ala(morpholin-4-yl) = N[C@@H](CN1CCOCC1)C(=O)O; Phe(3-CONH2) = NC(=O)c1cccc(C[C@H](N)C(=O)O)c1; Bip = N[C@@H](Cc1ccc(-c2ccccc2)cc1)C(=O)O; 2Pal = N[C@@H](Cc1ccccn1)C(=O)O; 2Thi = N[C@@H](Cc1cccs1)C(=O)O; Chg = N[C@H](C(=O)O)C1CCCCC1; Sar = CNCC(=O)O

The test deals with TNFα (Homo sapiens, UniProt P01375). The test is described as follows: TNF-Induced HEK-Blue Assay. It is filed as cell-based. To be noted: HEK-Blue-CD40L cells, NF-kB-driven secreted alkaline phosphatase reporter; TNFα 0.5 ng/ml; 18 h; read-out: TNF induced HEK-Blue assay IC50 value.
Sequence of TNFα (P01375 77-233 limits assumed): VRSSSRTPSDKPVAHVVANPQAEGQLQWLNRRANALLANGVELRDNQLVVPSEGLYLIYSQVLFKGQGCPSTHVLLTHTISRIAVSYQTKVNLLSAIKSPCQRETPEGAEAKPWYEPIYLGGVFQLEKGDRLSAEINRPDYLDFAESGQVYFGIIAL
As for `CC(=O)Nc1ccc(-c2ccc(C[C@@H]3NC(=O)[C@H](Cc4ccc(-c5ccccc5)cc4)NC(=O)[C@H](CN4CCOCC4)NC(=O)CSC[C@@H](C(=O)NCC(N)=O)NC(=O)[C@H](CC(C)C)NC(=O)[C@H](Cc4cccs4)NC(=O)[C@H](C4CCCCC4)NC(=O)[C@@H]4CCCN4C(=O)[C@H](C(C)C)NC(=O)[C@@H](CCCNC(=N)N)NC(=O)[C@H](CC(=O)O)NC(=O)[C@H](Cc4ccccn4)NC(=O)CN(C)C3=O)cc2)cc1` [Example 452] ({CH2CO}-[Ala(morpholin-4-yl)][Bip][Bip(4'-NHAc)][Sar][2Pal]D[dR]VP[Chg][2Thi]LCG-NH2; thioether N-13), the IC50 was 0.05 to 0.2 µM.
As for `CC(=O)Nc1ccc(-c2ccc(C[C@@H]3NC(=O)[C@H](Cc4ccc(-c5ccc(C(=O)O)cc5)cc4)NC(=O)[C@H](CN4CCOCC4)NC(=O)CSC[C@@H](C(=O)NCC(N)=O)NC(=O)[C@H](CC(C)C)NC(=O)[C@H](Cc4cccs4)NC(=O)[C@H](C(C)C)NC(=O)[C@@H]4CCCN4C(=O)[C@H](C(C)C)NC(=O)[C@@H](CCCNC(=N)N)NC(=O)[C@H](CC(=O)O)NC(=O)[C@H](Cc4cnc[nH]4)NC(=O)CN(C)C3=O)cc2)cc1` [Example 453] ({CH2CO}-[Ala(morpholin-4-yl)][Bip(4'-COOH)][Bip(4'-NHAc)][Sar]HD[dR]VPV[2Thi]LCG-NH2; thioether N-13), the figure is < 0.05 µM.
Turning to `CC(=O)Nc1ccc(-c2ccc(C[C@@H]3NC(=O)[C@H](Cc4ccc(-c5ccccc5)cc4)NC(=O)[C@H](CN4CCOCC4)NC(=O)CSC[C@@H](C(=O)NCC(N)=O)NC(=O)[C@H](CC(C)C)NC(=O)[C@H](Cc4ccccc4)NC(=O)[C@H](C4CCCCC4)NC(=O)[C@@H]4CCCN4C(=O)[C@H](C(C)C)NC(=O)[C@@H](CCCNC(=N)N)NC(=O)[C@H](CC(=O)O)NC(=O)[C@H](Cc4ccccn4)NC(=O)CN(C)C3=O)cc2)cc1` [Example 454] ({CH2CO}-[Ala(morpholin-4-yl)][Bip][Bip(4'-NHAc)][Sar][2Pal]D[dR]VP[Chg]FLCG-NH2; thioether N-13), the IC50 is < 0.05 µM.
As for `CC(=O)Nc1ccc(-c2ccc(C[C@@H]3NC(=O)[C@H](Cc4ccc(-c5ccccc5)cc4)NC(=O)[C@H](CN4CCOCC4)NC(=O)CSC[C@@H](C(=O)NCC(N)=O)NC(=O)[C@H](CC(C)C)NC(=O)[C@H](Cc4cccc(C(N)=O)c4)NC(=O)[C@H](C(C)C)NC(=O)[C@@H]4CCCN4C(=O)[C@H](C(C)C)NC(=O)[C@@H](CCCNC(=N)N)NC(=O)[C@H](CC(=O)O)NC(=O)[C@H](Cc4ccccc4)NC(=O)CN(C)C3=O)cc2)cc1` [Example 455] ({CH2CO}-[Ala(morpholin-4-yl)][Bip][Bip(4'-NHAc)][Sar]FD[dR]VPV[Phe(3-CONH2)]LCG-NH2; thioether N-13), the 50% inhibitory concentration (IC50) was 0.05 to 0.2 µM.
Under `CC(=O)Nc1ccc(-c2ccc(C[C@@H]3NC(=O)[C@H](Cc4ccc(-c5ccccc5)cc4)NC(=O)[C@H](CN4CCOCC4)NC(=O)CSC[C@@H](C(=O)NCC(N)=O)NC(=O)[C@H](CC(C)C)NC(=O)[C@H](Cc4cccc(C(N)=O)c4)NC(=O)[C@H](C(C)C)NC(=O)[C@@H]4CCCN4C(=O)[C@H](C(C)C)NC(=O)[C@@H](CCCNC(=N)N)NC(=O)[C@H](CC(=O)O)NC(=O)[C@H](Cc4ccc(O)cc4)NC(=O)CN(C)C3=O)cc2)cc1` [Example 456] ({CH2CO}-[Ala(morpholin-4-yl)][Bip][Bip(4'-NHAc)][Sar]YD[dR]VPV[Phe(3-CONH2)]LCG-NH2; thioether N-13) stands 0.05 to 0.2 µM; under `CC(=O)Nc1ccc(-c2ccc(C[C@@H]3NC(=O)[C@H](Cc4ccc(-c5ccc(C(=O)O)cc5)cc4)NC(=O)[C@H](CN4CCOCC4)NC(=O)CSC[C@@H](C(=O)NCC(N)=O)NC(=O)[C@H](CC(C)C)NC(=O)[C@H](Cc4cccc(C(N)=O)c4)NC(=O)[C@H](C(C)C)NC(=O)[C@@H]4CCCN4C(=O)[C@H](C(C)C)NC(=O)[C@@H](CCCNC(=N)N)NC(=O)[C@H](CC(=O)O)NC(=O)[C@H](Cc4ccc(O)cc4)NC(=O)CN(C)C3=O)cc2)cc1` [Example 457] ({CH2CO}-[Ala(morpholin-4-yl)][Bip(4'-COOH)][Bip(4'-NHAc)][Sar]YD[dR]VPV[Phe(3-CONH2)]LCG-NH2; thioether N-13), < 0.05 µM.
